In patent US20240287007A1, “N-(1,3,4-OXADIAZOL-2-YL)PHENYLCARBOXAMIDES AS HERBICIDES” (BAYER AKTIENGESELLSCHAFT, priority 2021, published 2024):

Key:
Type in all cases: in vivo
[1] = system: ABUTH (Abutylon threophrasti); assay: Post-emergence herbicidal action against ABUTH; settings: visual assessment after about 3 weeks
Method: (§1) Seeds of monocotyledonous and dicotyledonous weed and crop plants are laid out in sandy loam soil in wood-fiber pots, covered with soil and cultivated in a greenhouse under good growth conditions. 2 to 3 weeks after sowing, the trial plants are treated at the one-leaf stage. The compounds of the invention, formulated in the form of wettable powders (WP) or as emulsion concentrates (EC), are then sprayed onto the green parts of the plants as aqueous suspension or emulsion at a water application rate equating to 600 to 800 l/ha with addition of 0.2% wetting agent. After the test plants have been left to stand in the greenhouse under optimal growth conditions for about 3 weeks, the action of the preparations is assessed visually in comparison to untreated controls (herbicidal action in percent (%): 100% activity=the plants have died, 0% activity=like control plants).

[2] = system: AMARE (Amaranthus retroflexus); assay: Post-emergence herbicidal action against AMARE; settings: visual assessment after about 3 weeks
Method: as §1

[3] = system: DIGSA (Digitaria sanguinalis); assay: Post-emergence herbicidal action against DIGSA; settings: visual assessment after about 3 weeks
Method: as §1

LOLRI (Lolium rigidum) [4] = assay: Post-emergence herbicidal action against LOLRI; settings: visual assessment after about 3 weeks
Method: as §1

[5] = system: MATIN (Matricaria inodora); assay: Post-emergence herbicidal action against MATIN; settings: visual assessment after about 3 weeks
Method: as §1

[6] = system: PHBPU (Pharbitis purpurea); assay: Post-emergence herbicidal action against PHBPU; settings: visual assessment after about 3 weeks
Method: as §1

[7] = system: POLCO (Polygonum convolvulus); assay: Post-emergence herbicidal action against POLCO; settings: visual assessment after about 3 weeks
Method: as §1

SETVI (Setaria viridis) [8] = assay: Post-emergence herbicidal action against SETVI; settings: visual assessment after about 3 weeks
Method: as §1

VERPE (Veronica persica) [9] = assay: Post-emergence herbicidal action against VERPE; settings: visual assessment after about 3 weeks
Method: as §1

VIOTR (Viola tricolor) [10] = assay: Post-emergence herbicidal action against VIOTR; settings: visual assessment after about 3 weeks
Method: as §1

KCHSC (Kochia scoparia) [11] = assay: Post-emergence herbicidal action against KCHSC; settings: visual assessment after about 3 weeks
Method: as §1

AVEFA (Avena fatua) [12] = assay: Post-emergence herbicidal action against AVEFA; settings: visual assessment after about 3 weeks
Method: as §1

[13] = system: ECHCG (Echinochloa crus-galli); assay: Post-emergence herbicidal action against ECHCG; settings: visual assessment after about 3 weeks
Method: as §1

[14] = system: ABUTH (Abutylon threophrasti); assay: Pre-emergence herbicidal effect against ABUTH; settings: scored visually after 3 weeks
Text: (§2) Seeds of monocotyledonous and dicotyledonous weed plants and crop plants are laid out in sandy loam soil in wood-fiber pots and covered with soil. The compounds of the invention, formulated in the form of wettable powders (WP) or as emulsion concentrates (EC), are then applied to the surface of the covering soil as aqueous suspension or emulsion at a water application rate equating to 600 to 800 l/ha with addition of 0.2% wetting agent. After the treatment, the pots are placed in a greenhouse and kept under good growth conditions for the trial plants. The damage to the test plants is scored visually after a test period of 3 weeks by comparison with untreated controls (herbicidal activity in percent (%): 100% activity=the plants have died, 0% activity=like control plants).

[15] = system: ALOMY (Alopecurus myosuroides); assay: Pre-emergence herbicidal effect against ALOMY; settings: scored visually after 3 weeks
Text: as §2

[16] = system: AMARE (Amaranthus retroflexus); assay: Pre-emergence herbicidal effect against AMARE; settings: scored visually after 3 weeks
Text: as §2

AVEFA (Avena fatua) [17] = assay: Pre-emergence herbicidal effect against AVEFA; settings: scored visually after 3 weeks
Text: as §2

[18] = system: DIGSA (Digitaria sanguinalis); assay: Pre-emergence herbicidal effect against DIGSA; settings: scored visually after 3 weeks
Text: as §2

[19] = system: ECHCG (Echinochloa crus-galli); assay: Pre-emergence herbicidal effect against ECHCG; settings: scored visually after 3 weeks
Text: as §2

[20] = system: MATIN (Matricaria inodora); assay: Pre-emergence herbicidal effect against MATIN; settings: scored visually after 3 weeks
Text: as §2

[21] = system: PHBPU (Pharbitis purpurea); assay: Pre-emergence herbicidal effect against PHBPU; settings: 80 g/ha, scored visually after 3 weeks
Text: as §2

[22] = system: POLCO (Polygonum convolvulus); assay: Pre-emergence herbicidal effect against POLCO; settings: scored visually after 3 weeks
Text: as §2

SETVI (Setaria viridis) [23] = assay: Pre-emergence herbicidal effect against SETVI; settings: scored visually after 3 weeks
Text: as §2

VERPE (Veronica persica) [24] = assay: Pre-emergence herbicidal effect against VERPE; settings: scored visually after 3 weeks
Text: as §2

VIOTR (Viola tricolor) [25] = assay: Pre-emergence herbicidal effect against VIOTR; settings: scored visually after 3 weeks
Text: as §2

KCHSC (Kochia scoparia) [26] = assay: Pre-emergence herbicidal effect against KCHSC; settings: scored visually after 3 weeks
Text: as §2

[27] = system: ALOMY (Alopecurus myosuroides); assay: Post-emergence herbicidal action against ALOMY; settings: visual assessment after about 3 weeks
Method: as §1

LOLRI (Lolium rigidum) [28] = assay: Pre-emergence herbicidal effect against LOLRI; settings: scored visually after 3 weeks
Text: as §2

C[S+]([O-])c1c(OC(F)F)ccc(C(=O)Nc2nnco2)c1Cl (racemic) [Example 1-22]
100%: Post-emergence effect at 20 g/ha against ABUTH in % [1] | Post-emergence effect at 80 g/ha against ABUTH in % [1] | Post-emergence effect at 20 g/ha against AMARE in % [2] | Post-emergence effect at 80 g/ha against AMARE in % [2] | Post-emergence effect at 20 g/ha against DIGSA in % [3] | Post-emergence effect at 80 g/ha against DIGSA in % [3] | Post-emergence effect at 20 g/ha against MATIN in % [5] | Post-emergence effect at 80 g/ha against MATIN in % [5] | Post-emergence effect at 80 g/ha against PHBPU in % [6] | Post-emergence effect at 20 g/ha against SETVI in % (SETVI (Setaria viridis) [8]) | Post-emergence effect at 80 g/ha against SETVI in % (SETVI (Setaria viridis) [8]) | Post-emergence effect at 80 g/ha against VERPE in % (VERPE (Veronica persica) [9]) | Post-emergence effect at 20 g/ha against VIOTR in % (VIOTR (Viola tricolor) [10]) | Post-emergence effect at 80 g/ha against VIOTR in % (VIOTR (Viola tricolor) [10]) | Post-emergence effect at 20 g/ha against KCHSC in % (KCHSC (Kochia scoparia) [11]) | Post-emergence effect at 80 g/ha against KCHSC in % (KCHSC (Kochia scoparia) [11]) | Post-emergence effect at 80 g/ha against AVEFA in % (AVEFA (Avena fatua) [12]; 80 g/ha) | Post-emergence effect at 20 g/ha against ECHCG in % ([13]; 20 g/ha) | Post-emergence effect at 80 g/ha against ECHCG in % ([13]; 80 g/ha) | Pre-emergence effect at 80 g/ha against ABUTH in % [14] | Pre-emergence effect at 20 g/ha against AMARE in % [16] | Pre-emergence effect at 80 g/ha against AMARE in % [16] | Pre-emergence effect at 20 g/ha against DIGSA in % [18] | Pre-emergence effect at 80 g/ha against DIGSA in % [18] | Pre-emergence effect at 80 g/ha against ECHCG in % [19] | Pre-emergence effect at 20 g/ha against MATIN in % [20] | Pre-emergence effect at 80 g/ha against MATIN in % [20] | Pre-emergence effect at 80 g/ha against SETVI in % (SETVI (Setaria viridis) [23]) | Pre-emergence effect at 20 g/ha against VIOTR in % (VIOTR (Viola tricolor) [25]) | Pre-emergence effect at 80 g/ha against VIOTR in % (VIOTR (Viola tricolor) [25]) | Pre-emergence effect at 20 g/ha against KCHSC in % (KCHSC (Kochia scoparia) [26]) | Pre-emergence effect at 80 g/ha against KCHSC in % (KCHSC (Kochia scoparia) [26])
90%: Post-emergence effect at 80 g/ha against LOLRI in % (LOLRI (Lolium rigidum) [4]) | Post-emergence effect at 80 g/ha against POLCO in % [7] | Post-emergence effect at 20 g/ha against VERPE in % (VERPE (Veronica persica) [9]) | Post-emergence effect at 20 g/ha against A VEFA in % (AVEFA (Avena fatua) [12]; 20 g/ha) | Pre-emergence effect at 20 g/ha against ECHCG in % [19] | Pre-emergence effect at 80 g/ha against POLCO in % [22] | Pre-emergence effect at 20 g/ha against SETVI in % (SETVI (Setaria viridis) [23]) | Pre-emergence effect at 80 g/ha against VERPE in % (VERPE (Veronica persica) [24])
80%: Pre-emergence effect at 20 g/ha against ABUTH in % ([14]; 20 g/ha) | Pre-emergence effect at 80 g/ha against ALOMY in % [15] | Pre-emergence effect at 80 g/ha against A VEFA in % (AVEFA (Avena fatua) [17]) | Pre-emergence effect at 80 g/ha against PHBPU in % [21] | Pre-emergence effect at 20 g/ha against VERPE in % (VERPE (Veronica persica) [24])

C[S+]([O-])c1c(OC(F)(F)F)ccc(C(=O)Nc2nnco2)c1Cl (racemic) [Example 1-32, 2-chloro-3-(methylsulfinyl)-N-(1,3,4-oxadiazol-2-yl)-4-(trifluoromethoxy)benzamide]
100%: Post-emergence effect at 80 g/ha against ABUTH in % [1] | Post-emergence effect at 20 g/ha against AMARE in % [2] | Post-emergence effect at 80 g/ha against AMARE in % [2] | Post-emergence effect at 20 g/ha against MATIN in % [5] | Post-emergence effect at 80 g/ha against MATIN in % [5] | Post-emergence effect at 80 g/ha against PHBPU in % [6] | Post-emergence effect at 80 g/ha against POLCO in % [7] | Post-emergence effect at 20 g/ha against SETVI in % (SETVI (Setaria viridis) [8]) | Post-emergence effect at 80 g/ha against SETVI in % (SETVI (Setaria viridis) [8]) | Post-emergence effect at 80 g/ha against VERPE in % (VERPE (Veronica persica) [9]) | Post-emergence effect at 20 g/ha against VIOTR in % (VIOTR (Viola tricolor) [10]) | Post-emergence effect at 80 g/ha against VIOTR in % (VIOTR (Viola tricolor) [10]) | Post-emergence effect at 20 g/ha against KCHSC in % (KCHSC (Kochia scoparia) [11]) | Post-emergence effect at 80 g/ha against KCHSC in % (KCHSC (Kochia scoparia) [11]) | Pre-emergence effect at 80 g/ha against ABUTH in % [14] | Pre-emergence effect at 80 g/ha against ALOMY in % [15] | Pre-emergence effect at 20 g/ha against AMARE in % [16] | Pre-emergence effect at 80 g/ha against AMARE in % [16] | Pre-emergence effect at 80 g/ha against A VEFA in % (AVEFA (Avena fatua) [17]) | Pre-emergence effect at 20 g/ha against DIGSA in % [18] | Pre-emergence effect at 80 g/ha against DIGSA in % [18] | Pre-emergence effect at 20 g/ha against ECHCG in % [19] | Pre-emergence effect at 80 g/ha against ECHCG in % [19] | Pre-emergence effect at 20 g/ha against MATIN in % [20] | Pre-emergence effect at 80 g/ha against MATIN in % [20] | Pre-emergence effect at 80 g/ha against SETVI in % (SETVI (Setaria viridis) [23]) | Pre-emergence effect at 20 g/ha against VIOTR in % (VIOTR (Viola tricolor) [25]) | Pre-emergence effect at 80 g/ha against VIOTR in % (VIOTR (Viola tricolor) [25]) | Pre-emergence effect at 20 g/ha against KCHSC in % (KCHSC (Kochia scoparia) [26]) | Pre-emergence effect at 80 g/ha against KCHSC in % (KCHSC (Kochia scoparia) [26])
80%: Post-emergence effect at 20 g/ha against ALOMY in % ([27]; 20 g/ha) | Pre-emergence effect at 20 g/ha against ALOMY in % ([15]; 20 g/ha) | Pre-emergence effect at 20 g/ha against AVEFA in % (AVEFA (Avena fatua) [17]; 20 g/ha) | Pre-emergence effect at 20 g/ha against VERPE in % (VERPE (Veronica persica) [24])
90%: Post-emergence effect at 20 g/ha against ABUTH in % [1] | Post-emergence effect at 80 g/ha against ALOMY in % ([27]; 80 g/ha) | Post-emergence effect at 20 g/ha against DIGSA in % [3] | Post-emergence effect at 80 g/ha against DIGSA in % [3] | Post-emergence effect at 80 g/ha against LOLRI in % (LOLRI (Lolium rigidum) [4]) | Post-emergence effect at 20 g/ha against PHBPU in % ([6]; 20 g/ha) | Post-emergence effect at 20 g/ha against POLCO in % ([7]; 20 g/ha) | Post-emergence effect at 20 g/ha against VERPE in % (VERPE (Veronica persica) [9]) | Pre-emergence effect at 20 g/ha against LOLRI in % (LOLRI (Lolium rigidum) [28]; 20 g/ha) | Pre-emergence effect at 80 g/ha against LOLRI in % (LOLRI (Lolium rigidum) [28]; 80 g/ha) | Pre-emergence effect at 80 g/ha against PHBPU in % [21] | Pre-emergence effect at 20 g/ha against POLCO in % ([22]; 20 g/ha) | Pre-emergence effect at 80 g/ha against POLCO in % [22] | Pre-emergence effect at 20 g/ha against SETVI in % (SETVI (Setaria viridis) [23]) | Pre-emergence effect at 80 g/ha against VERPE in % (VERPE (Veronica persica) [24])
